Assay results reported in patent publication US11464821B2, “Composition for reducing cancer cachexia or weight loss caused by anticancer drug therapy or radiation therapy comprising ginseng extract having increased ginsenoside Rg3 and Rh2” (GREEN CROSS WELLBEING CORPORATION, priority 2013, dated 2022).
Like-named read-outs stand apart in the source and are kept apart here. Marks after values point to notes of the source that are not given here.

Columns and labels:
Type in all cases: in vivo, Balb/c-nu/nu mice
[1] = system: animal models xenografted with HT-29 colon cancer cell line; experiment: Running wheel activity (voluntary motor activity), test example 1; settings: HT-29 xenografted mice, 100 mg/kg oral, every day for 4 weeks
Description: (§1) 6-wk-old Balb/c-nu/nu female mice weighing 20±2 g were obtained from Orient Inc., and housed in animal rooms under a temperature of 23±1° C., relative humidity of 55±15%, and 12-hour light/dark illumination cycle. […] After acclamation for 1 week, 100 μl of HT-29 cells (5×10^6 cells/mouse) were subcutaneously injected into the flank of the Balb/c nu/nu mouse, and the mice were observed by the naked eyes. The mice were randomized into groups when the tumor size reached 150 mm^3, and then drug administration was initiated. Voluntary motor activity (running wheel activity) and forced motor activity (swimming test) were measured after the administration of anticancer drug and drugs was completed, and the amount of glycogen synthesized in the muscle was assayed through an ELISA kit after the tissue taken from the femoral region on the final date of autopsy was homogenized. Running wheel activity (Running distance=meter/10 min)
The voluntary motor activity was measured as the parameter of cancer-related fatigue (CRF) through running wheel activity. The number of wheels ran for a total of 10 min on 300Ø wheel was counted, and running distance was calculated. *Running distance=circumference (30 cm×3.14)×number of wheels/10 min […]

[2] = system: animal models xenografted with HT-29 colon cancer cell line; experiment: Swimming test (forced motor activity), test example 1; settings: HT-29 xenografted mice, 100 mg/kg oral, every day for 4 weeks
Description: as §1
A transparent temperature-constant water bath (500 mm×500 mm×400 mm), which maintained the designated temperature and water level, was filled with warm water (23±1° C.), and then the animals were subjected to forced swimming (FS). The swimming time immediately after total exhaustion was recorded. […]

[3] = system: animal models xenografted with HT-29 colon cancer cell line
Description: as §1
(§2) All the examples and comparative examples were diluted in phosphate buffered saline (PBS) according to the dosage, and compulsorily administered to the animals using needle for oral administration (Sonde). The dosage was diluted in PBS to 100 mg/kg of body weight, and the dosage was calculated such that 100 μl/20 g was administered depending on the weight measured on the day of administration. Test materials were administered at the same time once per day, at 10 AM, for 4 weeks, for the examples and comparative examples.
Evaluation was conducted in the same conditions as in test example 1, except that all the examples and comparative examples were compared in the conditions of treatment with an anticancer drug. The treatment with 5-FU as an anticancer drug was conducted at 30 mg/kg three times per week.

[4] = system: animal models xenografted with HT-29 colon cancer cell line; experiment: Glycogen synthesized in femoral muscle (ELISA kit) under radiation treatment, test example 3
Description: as §1, §2
Evaluation was conducted in the same conditions as in test example 1, except that all the examples and comparative examples were compared in the conditions of radiation treatment. The radiation treatment was conducted at 10 Gy three times per week.

| SMILES | Running distance for 10 min (meter/10 min) [1] | Incerase (%) in running distance for 10 min, compared with control ([1]; vs xenograft control) [%] | Total swimming time ([2]; forced swimming to exhaustion, water 23±1° C.) [s] | Increase (%) in swimming time, compared with control ([2]; vs xenograft control) [%] | Mean Muscle Glycogen ([3]; HT-29 xenografted mice, co-administered with 5-FU 30 mg/kg i.p. 3 days per week, 100 mg/kg oral daily for 4 weeks, femoral muscle) [mg/g] | Increase (%) in glycogen synthesis, compared with control ([3]; co-administered with 5-FU 30 mg/kg i.p. 3 days per week, 100 mg/kg oral daily for 4 weeks, vs 5-FU control) [%] | amount of glycogen synthesis compared with control group administered with the anticancer drug (in words) ([3]; co-administered with 5-FU for 4 weeks) | Mean Muscle Glycogen ([4]; HT-29 xenografted mice, with radio therapy 10 Gy 3 days per week, oral daily for 4 weeks, femoral muscle) [mg/g] | amount of glycogen synthesis compared with control group treated with radiation (in words) ([4]; combined with radiation treatment for 4 weeks) | Increase (%) in glycogen synthesis, compared with control ([4]; with radio therapy 10 Gy 3 days per week, oral daily for 4 weeks, vs radio therapy control) [%] | Mean Muscle Glycogen (mg/g), 5-FU control ([3]; mouse, in vivo) [mg/g] | reduction of amount of glycogen synthesis compared with the normal groups ([3]; mouse, in vivo) [%] |
| --- | --- | --- | --- | --- | --- | --- | --- | --- | --- | --- | --- | --- |
| NC(=O)C[S+]([O-])C(c1ccccc1)c1ccccc1 (stereo not drawn) [Comparative example 12, Modafinil] | 80.1 ± 1.9** meter/10 min | 52.6 | 731.8 ± 60.1 | 63.5 | 4.3 ± 0.5 | 18.4 | did not show any great change | 3.9 ± 0.2 | did not show any great change | 7.9 |  |  |
| O=c1[nH]cc(F)c(=O)[nH]1 [Example 5-FU, 5-fluorouracil] |  |  |  |  |  |  |  |  |  |  | 3.6 ± 0.34 | 51.4 |
